Results: patent US6063780A, “Method of treating a tumor” (priority 1998, dated 2000)
Where two headings read alike, the source gives them in different places.

Key:
MV-522 Human Lung Tumor [1] = assay: Oxaliplatin, Paclitaxel and Tirapazamine vs MV-522 Human Lung Tumor Xenograft (Example 4); conditions: for % Tumor Growth Inhibition (TGI) / Actual Tumor Wt. (Mean ± SEM) / Weight Change (Day 6) / # of Toxic Deaths / Mice with Complete Shrinkage / Mice with partial Tumor Shrinkage: oxaliplatin 15 mg/kg (MTD), paclitaxel 20 mg/kg, tirapazamine 70 mg/kg, i.p., qdx1; for % Tumor Growth Inhibition (TGI): in the animals without shrinkage; for Actual Tumor Wt. (Mean ± SEM) / Weight Change (Day 6): n=8; for # of Toxic Deaths / Mice with Complete Shrinkage / Mice with partial Tumor Shrinkage: number of 8 mice; for antitumor efficacy (in words): oxaliplatin experiment
Protocol: (§1) Nude mice weighing approximately 20 g were implanted s.c. by trocar with fragments of MV-522 human lung carcinomas harvested from s.c. growing tumors in nude mice hosts. When tumors were approximately 5 mm×5 mm in size (usually ten days after inoculation), the animals were pair-matched into treatment and control groups. Each group contained 8 tumored mice, each of which was ear-tagged and followed individually throughout the experiment. Tirapazamine was administered three hours prior to oxaliplatin, carboplatin and paclitaxel. The route and schedule for all drugs was i.p., qdxl.
(§2) Mice were weighed twice weekly, and tumor measurements were taken by calipers twice weekly, starting on Day 1. These tumor measurements were converted to mg tumor weight by a well-known formula, L×W^2 /2. The experiment was terminated when control tumors reached a size of 1 gram. Upon termination, all mice were weighed, sacrificed, and their tumors excised. Tumors were weighed, and the mean tumor weight per group was calculated.
(§3) With these agents, the final weight of a given tumor was subtracted from its own weight at the start of treatment on Day 1. This difference divided by the initial tumor weight is the % shrinkage. A mean % tumor shrinkage can be calculated from data from the mice in a group that experienced tumor regressions. If the MV-522 tumor completely disappeared in a mouse, this was considered a complete regression or complete tumor shrinkage.
Paclitaxel and tirapazamine were given at doses of 20 mg/kg and 70 mg/kg respectively (i.p.; qd×1).

[2] = cited from earlier work
MV-522 Human Lung Tumor [3] = assay: Carboplatin, Paclitaxel and Tirapazamine vs MV-522 Human Lung Tumor Xenograft (confirming study, Example 3); conditions: for Final Tumor Wt. (Mean ± SEM) / Weight Change (Day 6): n=8; for antitumor efficacy (in words): carboplatin experiment / general statement; for Mean % Tumor Shrinkage: mice with partial shrinkage
Protocol: as §1, §2, §3
Paclitaxel and tirapazamine were administered i.p. as a single bolus at doses of 20 mg/kg (2/3 MTD) and 70 mg/kg (MTD) respectively. Carboplatin was given as a single i.p. bolus at doses of 100 mg/kg (MTD) or 50 mg/kg (1/2 MTD).

[4] = tested on: FSaIIC Murine Fibrosarcoma; conditions: cited from earlier work
[5] = tested on: mouse SCCVII and other tumors; conditions: multiple injections in conjunction with fractionated irradiation; cited from earlier work
[6] = carboplatin 50 mg/kg (1/2 MTD), paclitaxel 20 mg/kg, tirapazamine 70 mg/kg where combined, i.p., qdx1, in the animals without shrinkage
[7] = carboplatin 50 mg/kg (1/2 MTD), paclitaxel 20 mg/kg, tirapazamine 70 mg/kg where combined, i.p., qdx1
[8] = carboplatin 50 mg/kg (1/2 MTD), paclitaxel 20 mg/kg, tirapazamine 70 mg/kg where combined, i.p., qdx1, number of 8 mice
[9] = carboplatin 100 mg/kg (MTD), paclitaxel 20 mg/kg, tirapazamine 70 mg/kg where combined, i.p., qdx1, in the animals without shrinkage
[10] = carboplatin 100 mg/kg (MTD), paclitaxel 20 mg/kg, tirapazamine 70 mg/kg where combined, i.p., qdx1
[11] = carboplatin 100 mg/kg (MTD), paclitaxel 20 mg/kg, tirapazamine 70 mg/kg where combined, i.p., qdx1, number of 8 mice
[12] = groups without carboplatin, paclitaxel 20 mg/kg, tirapazamine 70 mg/kg, i.p., qdx1
[13] = groups without carboplatin, paclitaxel 20 mg/kg, tirapazamine 70 mg/kg, i.p., qdx1, number of 8 mice

Molecule	% Tumor Growth Inhibition (TGI) (MV-522 Human Lung Tumor [1]) [%]	Actual Tumor Wt. (Mean ± SEM) (MV-522 Human Lung Tumor [1]) [mg]	Weight Change (Day 6) (MV-522 Human Lung Tumor [1])	# of Toxic Deaths (MV-522 Human Lung Tumor [1])	Mice with Complete Shrinkage (MV-522 Human Lung Tumor [1])	Mice with partial Tumor Shrinkage (MV-522 Human Lung Tumor [1])	antitumor efficacy (in words) (MV-522 Human Lung Tumor [1])	% Tumor Growth Inhibition (TGI) (MV-522 Human Lung Tumor [3]; [6]) [%]	Final Tumor Wt. (Mean ± SEM) (MV-522 Human Lung Tumor [3]; [7]) [mg]	Weight Change (Day 6) (MV-522 Human Lung Tumor [3]; [7])	# of Toxic Deaths (MV-522 Human Lung Tumor [3]; [8])	Mice with Complete Shrinkage (MV-522 Human Lung Tumor [3]; [8])	Mice with partial Tumor Shrinkage (MV-522 Human Lung Tumor [3]; [8])	% Tumor Growth Inhibition (TGI) (MV-522 Human Lung Tumor [3]; [9]) [%]	Final Tumor Wt. (Mean ± SEM) (MV-522 Human Lung Tumor [3]; [10]) [mg]	Weight Change (Day 6) (MV-522 Human Lung Tumor [3]; [10]) [%]	# of Toxic Deaths (MV-522 Human Lung Tumor [3]; [11])	Mice with Complete Shrinkage (MV-522 Human Lung Tumor [3]; [11])	Mice with partial Tumor Shrinkage (MV-522 Human Lung Tumor [3]; [11])	Final Tumor Wt. (Mean ± SEM) (MV-522 Human Lung Tumor [3]; [12]) [mg]	also measured
O=C1[O][Pt]2([NH][C@@H]3CCCC[C@H]3[NH]2)[O]C1=O (relative stereo) [Oxaliplatin, cis-oxalato(trans-1-1,2-cyclohexanediamine) platinum (II)]	8.2	731.5 ± 62.6	+5.2%	0	0	0	not active	–	–	–	–	–	–	–	–	–	–	–	–	–	–
N.N.O=C([O-])C1(C(=O)[O-])CCC1.[Pt+2] [Carboplatin, platinum, diammine [1,1-cyclobutane-dicarboxylato(2)-0,0']-, (SP-4-2)]	–	–	–	–	–	–	–	22.5	698.1 ± 160.5	-1.7%	0	0	0	39.7	556.5 ± 129.8	-1.5	0	0	0	–	pH of a 1% solution ([2]; 1% solution): 5-7; rate of aquation ([2]; compared with cisplatin): occurs at a slower rate than in the case of cisplatin; solubility in water ([2]; water): approximately 14 mg/mL; % Tumor Growth Inhibition (TGI) (MV-522 Human Lung Tumor [3]; carboplatin 100 mg/kg (MTD), paclitaxel 20 mg/kg, tirapazamine 70 mg/kg where combined, i.p., qdx1, in the animals without shrinkage, listed as carboplatin): approximately 40%
CC(=O)OC1C(=O)C2(C)C(O)CC3OCC3(OC(C)=O)C2C(OC(=O)c2ccccc2)C2(O)CC(OC(=O)C(O)C(NC(=O)c3ccccc3)c3ccccc3)C(C)=C1C2(C)C [Paclitaxel, 5β,20-Epoxy-1,2α,4,7β,10β,13α-hexahydroxytax-11-en-9-one 4,10-diacetate 2-benzoate 13-ester with (2R, 3S)-N-benzoyl-3-phenylisoserine]	30.9	570.5	+0.9%	1	0	0	–	–	–	–	–	–	–	–	–	–	–	–	–	552.9 ± 68.6	solubility in water (in words) ([2]; water): insoluble in water; Weight Change (Day 6) (MV-522 Human Lung Tumor [3]; [12]): +0.4%; # of Toxic Deaths (MV-522 Human Lung Tumor [3]; [13]): 1; Mice with Complete Shrinkage (MV-522 Human Lung Tumor [3]; [13]): 0; Mice with partial Tumor Shrinkage (MV-522 Human Lung Tumor [3]; [13]): 0; # of Toxic Deaths (MV-522 Human Lung Tumor [3]; groups without carboplatin, paclitaxel 20 mg/kg, tirapazamine 70 mg/kg, i.p., qdx1, number of 8 mice, listed as paclitaxel): one toxic death
Nc1n[n+]([O-])c2ccccc2[n+]1[O-] [Tirapazamine, 3-amino-1,2,4-benzotriazine 1,4-dioxide]	2.5	769.1 ± 73.0	-6.9%	0	0	0	not active	–	–	–	–	–	–	–	–	–	–	–	–	835.3 ± 111.2	dose enhancement / cytotoxic effect in combination ([4]; given just before single-dose cyclophosphamide, carmustine or melphalan): marked dose enhancement leading to synergistic cytotoxic effects on tumor cells; dose enhancement / cytotoxic effect in combination ([4]; given just prior to single-dose cisplatin): additive effect, except at the highest dose level of cisplatin; antitumor efficacy (in words) (MV-522 Human Lung Tumor [3]): not active as a single agent; % Tumor Growth Inhibition (TGI) (MV-522 Human Lung Tumor [3]; [12]): 5.7%; Weight Change (Day 6) (MV-522 Human Lung Tumor [3]; [12]): -1.7%; # of Toxic Deaths (MV-522 Human Lung Tumor [3]; [13]): 0; Mice with Complete Shrinkage (MV-522 Human Lung Tumor [3]; ip, 70 mg/kg): 0; Mice with partial Tumor Shrinkage (MV-522 Human Lung Tumor [3]; ip, 70 mg/kg): 0; tumor cell kill with fractionated irradiation [5]: kills hypoxic cells, increases tumor cell kill while sparing normal tissue
Paclitaxel + Carboplatin	–	–	–	–	–	–	–	49.8	474.0 ± 93.5	+1.7%	0	0	0	68.8	241.4 ± 70.3	-1.3	0	0	2	–	Mean % Tumor Shrinkage (MV-522 Human Lung Tumor [3]; [10]): 53.0%; Mean % Tumor Shrinkage (MV-522 Human Lung Tumor [3]; carboplatin 100 mg/kg (MTD), paclitaxel 20 mg/kg, tirapazamine 70 mg/kg where combined, i.p., qdx1, listed as paclitaxel-high dose carboplatin): 53%; Mice with partial Tumor Shrinkage (MV-522 Human Lung Tumor [3]; carboplatin 100 mg/kg (MTD), paclitaxel 20 mg/kg, tirapazamine 70 mg/kg where combined, i.p., qdx1, number of 8 mice, listed as paclitaxel-high dose carboplatin): two; antitumor efficacy (in words) (MV-522 Human Lung Tumor [3]): even more effective
